Values quoted from earlier work as cited in US4873092A, “Slow-releasing preparation” (Murata Kikai Kabushiki Kaisha, priority 1987, dated 1989).

Settings: mouce

SMILES: COc1cccc2c1C(=O)c1c(O)c3c(c(O)c1C2=O)C[C@@](O)(C(=O)CO)C[C@@H]3O[C@H]1C[C@H](N)[C@H](O)[C@H](C)O1 [Adriamycin]
- LD50 value: 9.8 mg/kg
